Results published in patent US20110206638A1, “COMPOSITIONS AND METHODS FOR REDUCING THE MUTATION RATE OF VIRUSES” (priority 2010, published 2011).

Columns and labels:
[1] = system: subgenomic HCV replicon of genotype 1b (Con1S1179I), NS5A region; experiment: NS5A sequencing of HCV RNA, nucleotide and amino acid substitution rates in Con1 replicon cells (Example 2); assay type: cell-based, Hepatitis C virus; details: for dn/ds / Ts/Tv / Percentage of sites showing positive selection / location of mutations in NS5A / Fold increase (Amino acid change per site) / Fold increase (Nt. change per site): 48 hrs; for dn/ds: SNAP, control 0.31; for Ts/Tv: control 3.3; for Percentage of sites showing positive selection: control 4.25%; for Amino acid change per site / Nt. change per site: Con1 replicon cells, once daily for 48 hrs, T7 baseline subtracted; for Nt. change per site: ethanol 0.5% v/v, BSO 20 μM, H2O2 100 μM, acetaldehyde 10 μM; for location of mutations in NS5A: SNAP plot against codons; for percentage of nucleotide substitutions A→C / percentage of nucleotide substitutions A→G / percentage of nucleotide substitutions A→U / percentage of nucleotide substitutions C→A / percentage of nucleotide substitutions C→G / percentage of nucleotide substitutions C→U / percentage of nucleotide substitutions G→A / percentage of nucleotide substitutions G→C / percentage of nucleotide substitutions G→U / percentage of nucleotide substitutions U→A / percentage of nucleotide substitutions U→C / percentage of nucleotide substitutions U→G: of all nt. substitutions in the group; for Fold increase (Amino acid change per site) / Fold increase (Nt. change per site): over control
Procedure: Huh7 cell clones (SgPC2 cells) supporting continuous replication of a subgenomic HCV replicon of genotype 1b (Con1S1179I sequence) were used (Choi J. et al. (2004) Hepatology 39:81-89; Blight K J et al. (2000) Science 290:1972). Subgenomic replicons support the HCV RNA genome replication by the viral replicase but no virus is formed. The in vitro transcription, transfection of the viral RNA, and Huh7 human hepatoma cell culture were performed as described (Choi J. et al. (2004) Hepatology 39:81-89; Blight K J et al. (2000) Science 290:1972). All biochemicals including ethanol (molecular biology grade), acetaldehyde, BSO, H2O2, dipyridal, and GSH ethyl ester were obtained from SigmaAldrich except PIH, which was synthesized according to published methods (Kicic A et al., (2001) Cancer 92: 3093-3110; Ponka P. et al., (1979) FEBS Lett 97: 317-321).
Total RNAs were collected using Trizol (Invitrogen). Then, the NS5A region (nt. 4612 to 6013 of Con1 replicon) was reverse transcribed/amplified with AccuScript High Fidelity RT-PCR System (Agilent). The reverse primer used for reverse transcription and PCR amplification was 5′-[…]-3′ (SEQ ID NO: 1), and the forward primer was 5′-[…]-3′ (SEQ ID NO: 2). The XbaI and HindIII restriction enzyme sites are underlined. The cDNA products were cloned into pUC19 via HindIII and XbaI sites and sequenced at the Joint Genome Institute (Livermore, Calif.) and University of California Berkeley Sequencing (Berkeley, Calif.). Sequences were aligned against Con1(S1179I) sequence, using BioEdit/MEGA 4.0 Molecular Evolutionary Genetics Analysis software. Cumulative synonymous and nonsynonymous mutations were computed using Synonymous Nonsynonomous Analysis Program (SNAP; www.hcv.lanl.gov). The […] ratio was calculated using SNAP. Amino acid substitution trends were analyzed by position with MutationCounter, a mutation counting program, developed for this project. The sequences were compared with 1,212 genotype 1b NS5A sequences pooled from the Lawrence Livermore HCV sequence database (www.hcv.lanl.gov) which included sequences from the European, Asian, and Russian databases. Sequences harboring gaps, undetermined nucleotides, or incomplete NS5A sequences were removed prior to the analysis.
To test whether ethanol can affect the HCV RNA sequence, Con1 replicon cells that support genotype 1b subgenomic HCV RNA replication were incubated with ethanol (0.5% v/v), BSO (20 μM), H2O2 (100 μM), or acetaldehyde (10 μM) once daily for 48 hrs with a change of the cell culture medium at the time of each treatment. Acetaldehyde and H2O2 are generated during hepatic metabolism of ethanol. BSO, by inhibiting GSH biosynthesis, mimics GSH depletion seen in hepatitis C patients. GSH participates in detoxification reactions that remove reactive species such as H2O2 and acetaldehyde. Thus, by decreasing GSH, BSO also amplifies the effects of endogenous ROS and RNS, allowing one to test the effects of endogenous ROS/RNS. Then, the RNA was collected, and the NS5A region corresponding to nt. 4612 to 6013 of Con1 replicon was reverse transcribed using AccuScript reverse transcriptase and amplified with PfuUltra (Agilent). PfuUltra is a high fidelity DNA polymerase with an error rate of 4.3×10^−9; AccuScript reverse transcriptase has an error rate of 1.61×10^−7. Then, the cDNA products were cloned into pUC19 and sequenced by the Sanger method.

[2] = system: Huh7 cells transfected with JFH1 RNA; experiment: 8-OHG oxidative RNA damage in Huh7 cells transfected with JFH1 RNA (ELISA); assay type: cell-based, human; details: 48 hr (0.5% ethanol, 20 μM BSO) and 2 weeks (0.1% ethanol, 20 μM BSO)
Procedure: Total RNA was isolated using Trizol (Invitrogen) and analyzed for 8-OHG by ELISA. Briefly, RNA was incubated with 10 U DNase I (GE Healthcare), 10 U nuclease P1 (Sigma or US Biological), and 10 U alkaline phosphatase (Promega) and analyzed for 8-OHG content with RNA Damage Kit (Cell Biolabs, Inc.) and 8-OHG standards, following manufacturer's protocols.
HCV induces severe oxidative/nitrosative stress in the host by increasing the generation of reactive species. Thus, JFH1 strain of genotype 2a that supports complete replication cycle of HCV and produces infectious HCV in cell culture was used next to determine whether HCV was sufficient to induce oxidative RNA damage even in the absence of ethanol and BSO. Huh7 cells were transfected with JFH1 RNA and either exposed to 0.5% ethanol (v/v) or 20 μM BSO daily for 48 hrs, or to 0.1% ethanol (v/v) or 20 μM BSO with and without 5 μM dipyridyl or 1 mM GSH ester daily with a change of medium prior to each treatment for 2 weeks.

Structure (SMILES) | dn/ds [1] | Ts/Tv [1] | Percentage of sites showing positive selection [1] [%] | Amino acid change per site [1] | Nt. change per site [1] | location of mutations in NS5A [1] | percentage of nucleotide substitutions A→C [1] [percentage] | percentage of nucleotide substitutions A→G [1] [percentage] | percentage of nucleotide substitutions A→U [1] [percentage] | percentage of nucleotide substitutions C→A [1] [percentage] | percentage of nucleotide substitutions C→G [1] [percentage] | percentage of nucleotide substitutions C→U [1] [percentage] | percentage of nucleotide substitutions G→A [1] [percentage] | percentage of nucleotide substitutions G→C [1] [percentage] | percentage of nucleotide substitutions G→U [1] [percentage] | percentage of nucleotide substitutions U→A [1] [percentage] | percentage of nucleotide substitutions U→C [1] [percentage] | percentage of nucleotide substitutions U→G [1] [percentage] | Fold increase (Amino acid change per site) [1] [fold] | 8-OHG increased by HCV (JFH1) [2] | further results
CCCCS(=N)(=O)CCC(N)C(=O)O [BSO, L-buthionine-S,R-sulfoximine] | 0.72 | 3.3 | 12.3 | 3.24×10^−3 amino acid change per site | 1.20×10^−3 nt. change per site | clustered in the C-terminal half of NS5A | 1.28 | 24.36 | 2.56 | 3.85 | 5.13 | 8.97 | 16.67 | 3.85 | 3.85 | 0 | 29.49 | 0 | 11.6 | exacerbated | –
CCO [Ethanol, ethanol] | 1.05 | 6.8 | 12.3 | 4.97 × 10^−3 amino acid change per site | 1.71 × 10^−3 nt. change per site | clustered in the C-terminal half of NS5A | 1.30 | 25.97 | 2.60 | 0 | 0 | 18.18 | 12.99 | 6.49 | 2.60 | 0 | 29.87 | 0 | 17.8 | exacerbated | Nt. change per site ([1]; listed as ethanol): 1.71×10^−3 nt. change per site; Amino acid change per site ([1]; listed as ethanol): 4.97×10^−3 amino acid change per site; Fold increase (Nt. change per site) [1]: 5.9 fold; Fold increase (Amino acid change per site) ([1]; listed as ethanol): ~18 fold; Fold increase (Nt. change per site) ([1]; listed as ethanol): about 6 fold
